Results published in US20240124422A1, “MUTANT PI3K-ALPHA INHIBITORS AND THEIR USE AS PHARMACEUTICALS” (Prelude Therapeutics Incorporated, priority 2022, published 2024).

Tested on: phosphorylation of AKT on Ser473 as a readout of the PI3K pathway in T-47D (heterozygous PIK3CA H1047R) cells
Experiment: PI3K pathway activation assay, pAKT Ser473 HTRF, T-47D cells
Type: cell-based
Settings: Homo sapiens, T47D, 2 h, two hours of treatment
Method: The inhibitory activity of compounds was evaluated by measuring phosphorylation of AKT on Ser473 as a readout of the PI3K pathway using HTRF (CisBio catalog number: 64AKSPE). These studies were conducted in the T-47D (heterozygous PIK3CA H1047R) and SKBR3 (PIK3CA WT) cell lines. Cells were maintained in a 37° C. incubator at 5% CO2 in the following media: T-47D: RPMI 1640, ATCC© Modification (Gibco, A10491-01) supplemented with 10% v/v FBS (Gibco, 26140-079), 1% penicillin streptomycin (Gibco, 15140-122), and 7.4 ug/mL insulin (MilliporeSigma, I9278); SKBR3: McCoy's 5a (Modified) Medium (Gibco, 16600-082) supplemented with 10% v/v FBS (Gibco, 26140-079). Cells were seeded in 384-well plates at a density of 4,000 cells/well. Compounds dissolved in DMSO were added using a digital dispense (D300E, Tecan) 10-point serial dilution. After two hours of treatment, cells were lysed for thirty minutes and then incubated with detection reagents per HTRF kit material and manufacturer's instructions. Fluorescence signal was measured with a multimode plate reader (Envision 2105, Perkin Elmer). Fluorescent signal was normalized to background and DMSO controls to obtain percent inhibition/activity for each compound.

Q: For `COc1cccc(NC(C)c2cc(C)cc3c(=O)n(C)c(N4Cc5ccccc5C4)nc23)c1C(=O)O` (stereo not shown) [Example 29, 2-((1-(2-(isoindolin-2-yl)-3,6-dimethyl-4-oxo-3,4-dihydroquinazolin-8-yl)ethyl)amino)-6-methoxybenzoic acid], which IC50 is on record?
A: The IC50 was 500 to 10000 nM.

Q: Which IC50 does the source give for `Cc1cc(C(C)Nc2ccccc2C(=O)O)c2nc(C3CCCN3S(=O)(=O)F)n(C)c(=O)c2c1` (stereo not shown) [Example 73, 2-[1-[2-(1-Fluorosulfonylpyrrolidin-2-yl)-3,6-dimethyl-4-oxoquinazolin-8-yl]ethylamino]benzoic acid] here?
A: The IC50 was 500 to 10000 nM.

Q: Which IC50 does the source give for `CC(=O)N1C[C@H]2CN(c3nc4c(C(C)Nc5ccccc5C(=O)O)cc(C)cc4c(=O)n3C)C[C@@H]2C1` (stereo partly drawn) [Example 66, 2-((1-(2-((3aR,6aR)-5-Acetylhexahydropyrrolo[3,4-c]pyrrol-2(1H)-yl)-3,6-dimethyl-4-oxo-3,4-dihydroquinazolin-8-yl)ethyl)amino)benzoic acid] here?
A: The IC50 was 500 to 10000 nM.

Q: For `Cc1cc(C(C)Nc2cccc(F)c2C(=O)O)c2nc(N3CC4CC4C3)n(C)c(=O)c2c1` (stereo not shown) [Example 121, 2-[1-[2-(3-Azabicyclo[3.1.0]hexan-3-yl)-3,6-dimethyl-4-oxoquinazolin-8-yl]ethylamino]-6-fluorobenzoic acid], which IC50 is on record?
A: The IC50 was less than 500 nM.

Q: For `C=CC(=O)N1CCCC1c1nc2c(C(C)Nc3ccccc3C(=O)O)cc(C)cc2c(=O)n1C` (stereo not shown) [Example 71, 2-[1-[3,6-Dimethyl-4-oxo-2-(1-prop-2-enoylpyrrolidin-2-yl)quinazolin-8-yl]ethylamino]benzoic acid], which IC50 is on record?
A: The IC50 was 500 to 10000 nM.

Q: How did the IC50 turn out when `Cc1cc(C(C)Nc2ccccc2C(=O)O)c2nc(-c3ccn[nH]3)n(C)c(=O)c2c1` (stereo not shown) [Example 25, 2-((1-(3,6-dimethyl-4-oxo-2-(1H-pyrazol-5-yl)-3,4-dihydroquinazolin-8-yl)ethyl)amino)benzoic acid] was run?
A: Its IC50 is 500 to 10000 nM.

Q: Which IC50 does the source give for `Cc1cc(C(C)Nc2ccccc2C(=O)O)c2nc(N3Cc4ccccc4C3)n(-c3cccnc3)c(=O)c2c1` (stereo not shown) [Example 18, 2-((1-(2-(isoindolin-2-yl)-6-methyl-4-oxo-3-(pyridin-3-yl)-3,4-dihydroquinazolin-8-yl)ethyl)amino)benzoic acid] here?
A: The IC50 was 500 to 10000 nM.

Q: With `Cc1cc(C(C)Nc2ccccc2C(=O)O)c2nc(N3C[C@H]4CCC[C@H]4C3)n(C)c(=O)c2c1` (stereo partly drawn) [Example 113, 2-[1-[3,6-dimethyl-4-oxo-2-[(3aR,6aS)-3,3a,4,5,6,6a-hexahydro-1H-cyclopenta[c]pyrrol-2-yl]quinazolin-8-yl]ethylamino]benzoic acid] as the compound, how does the IC50 read?
A: Its IC50 is less than 500 nM.

Q: With `CSc1ccc(NC(C)c2cc(C)cc3c(=O)n(C)c(N4CC5CC5C4)nc23)c(C(=O)O)n1` (stereo not shown) [Example 124, 3-[1-[2-(3-Azabicyclo[3.1.0]hexan-3-yl)-3,6-dimethyl-4-oxoquinazolin-8-yl]ethylamino]-6-methylsulfanylpyridine-2-carboxylic acid] as the compound, how does the IC50 read?
A: Its IC50 is less than 500 nM.

Q: `CC(Nc1ccccc1C(=O)O)c1cccc2c(=O)n(C)c(N3Cc4ccccc4C3)nc12` (stereo not shown) [Example 72, 2-((1-(2-(Isoindolin-2-yl)-3-methyl-4-oxo-3,4-dihydroquinazolin-8-yl)ethyl)amino)benzoic acid] was tested. Which IC50 did it give?
A: Its IC50 is 500 to 10000 nM.

Q: Which IC50 does the source give for `Cc1cc(C(C)Nc2cc(F)ncc2C(=O)O)c2nc(N3CC4CC4C3)n(C)c(=O)c2c1` (stereo not shown) [Example 125, 4-((1-(2-(3-Azabicyclo[3.1.0]hexan-3-yl)-3,6-dimethyl-4-oxo-3,4-dihydroquinazolin-8-yl)ethyl)amino)-6-fluoronicotinic acid] here?
A: Its IC50 is 500 to 10000 nM.

Q: For `Cc1cc(C(C)Nc2ccccc2C(=O)O)c2nc(N3CCS(=O)(=O)CC3)n(C)c(=O)c2c1` (stereo not shown) [Example 56, 2-((1-(2-(1,1-dioxidothiomorpholino)-3,6-dimethyl-4-oxo-3,4-dihydroquinazolin-8-yl)ethyl)amino)benzoic acid], which IC50 is on record?
A: The IC50 was 500 to 10000 nM.

Q: `Cc1cc(C(C)Nc2ccccc2C(=O)O)c2nc(N)n(C)c(=O)c2c1` (stereo not shown) [Example 26, 2-((1-(2-amino-3,6-dimethyl-4-oxo-3,4-dihydroquinazolin-8-yl)ethyl)amino) benzoic acid] was tested. Which IC50 did it give?
A: The IC50 was 500 to 10000 nM.

Q: For `Cc1cc(C(C)Nc2ccccc2C(=O)O)c2nc(N3CCN(C(=O)c4ccc(C)nc4)CC3)n(C)c(=O)c2c1` (stereo not shown) [Example 94, 2-((1-(3,6-Dimethyl-2-(4-(6-methylnicotinoyl)piperazin-1-yl)-4-oxo-3,4-dihydro-quinazolin-8-yl)ethyl)amino)benzoic acid], which IC50 is on record?
A: Its IC50 is less than 500 nM.

Q: `Cc1cc(C(C)Nc2ccc(C(F)(F)F)nc2C(=O)O)c2nc(N3CC4CC4C3)n(C)c(=O)c2c1` (stereo not shown) [Example 80, 3-((1-(2-(3-azabicyclo[3.1.0]hexan-3-yl)-3,6-dimethyl-4-oxo-3,4-dihydro-quinazolin-8-yl)ethyl)amino)-6-(trifluoromethyl)picolinic acid] was tested. Which IC50 did it give?
A: The IC50 was 500 to 10000 nM.

Q: With `Cc1cc(C(C)Nc2cc(Cl)nnc2C(=O)O)c2nc(N3CC4CC4C3)n(C)c(=O)c2c1` (stereo not shown) [Example 126, 4-((1-(2-(3-Azabicyclo[3.1.0]hexan-3-yl)-3,6-dimethyl-4-oxo-3,4-dihydroquinazolin-8-yl)ethyl)amino)-6-chloropyridazine-3-carboxylic acid] as the compound, how does the IC50 read?
A: Its IC50 is 500 to 10000 nM.

Q: `CC(Nc1ccccc1C(=O)O)c1cc(Br)cc2c(=O)n(C)c(N3CCC(F)(F)CC3)nc12` (stereo not shown) [Example 74, 2-((1-(6-Bromo-2-(4,4-difluoropiperidin-1-yl)-3-methyl-4-oxo-3,4-dihydroquinazolin-8-yl)ethyl)amino)benzoic acid] was tested. Which IC50 did it give?
A: Its IC50 is less than 500 nM.

Q: How did the IC50 turn out when `CC(Nc1ccccc1C(=O)O)c1cc(C(F)(F)F)cc2c(=O)n(C)c(N3Cc4ccccc4C3)nc12` (stereo not shown) [Example 15, 2-((1-(2-(isoindolin-2-yl)-3-methyl-4-oxo-6-(trifluoromethyl)-3,4-dihydroquinazolin-8-yl)ethyl)amino)benzoic acid] was run?
A: Its IC50 is less than 500 nM.

Q: `CONC(=O)c1ccccc1NC(C)c1cc(C)cc2c(=O)n(C)c(N3Cc4ccccc4C3)nc12` (stereo not shown) [Example 5, 2-((1-(2-(isoindolin-2-yl)-3,6-dimethyl-4-oxo-3,4-dihydroquinazolin-8-yl)ethyl)amino)-N-methoxybenzamide] was tested. Which IC50 did it give?
A: Its IC50 is 500 to 10000 nM.

Q: `Cc1cc(C(C)Nc2ccccc2C(=O)O)c2nc(N3CCC(F)(F)CC3)n(C)c(=O)c2c1` (single isomer, unassigned) [Example 37, 2-((1-(2-(4,4-difluoropiperidin-1-yl)-3,6-dimethyl-4-oxo-3,4-dihydroquinazolin-8-yl)ethyl)amino)benzoic acid] was tested. Which IC50 did it give?
A: Its IC50 is less than 500 nM.

Q: `CCC(Nc1ccccc1C(=O)O)c1cc(C)cc2c(=O)n(C)c(N3CC4CC4C3)nc12` (stereo not shown) [Example 97, 2-((1-(2-(3-azabicyclo[3.1.0]hexan-3-yl)-3,6-dimethyl-4-oxo-3,4-dihydro-quinazolin-8-yl)propyl)amino)benzoic acid] was tested. Which IC50 did it give?
A: Its IC50 is 500 to 10000 nM.

Q: Which IC50 does the source give for `Cc1cc(C(C)Nc2ccccc2C(=O)O)c2nc(N3CC4CC3CN4C(=O)OC(C)(C)C)n(C)c(=O)c2c1` (stereo not shown) [Example 65, 2-((1-(2-(5-(tert-Butoxycarbonyl)-2,5-diazabicyclo[2.2.1]heptan-2-yl)-3,6-dimethyl-4-oxo-3,4-dihydroquinazolin-8-yl)ethyl)amino)benzoic acid] here?
A: Its IC50 is 500 to 10000 nM.

Same assay, conditions: two hours of treatment, read-out: T47D pAKT IC50

Q: For `Cc1cc(C(C)Nc2ccccc2C(=O)O)c2nc(N3C[C@@H]4[C@H](C3)[C@H]4C(=O)N(C)CC(F)F)n(C)c(=O)c2c1` (stereo partly drawn) [Example 84, 2-((1-(2-((1R,5S,6R)-6-((2,2-Difluoroethyl)(methyl)carbamoyl)-3-azabicyclo[3.1.0]hexan-3-yl)-3,6-dimethyl-4-oxo-3,4-dihydroquinazolin-8-yl)ethyl)amino)benzoic acid], which IC50 is on record?
A: Its IC50 is less than 500 nM.

Q: With `Cc1cc(C(C)Nc2ccccc2C(=O)O)c2nc(N3C[C@@H]4[C@H](C3)[C@H]4C(=O)N3CCOC[C@@H]3C)n(C)c(=O)c2c1` (stereo partly drawn) [Example 86, 2-((1-(3,6-Dimethyl-2-((1R,5S,6R)-6-((S)-3-methylmorpholine-4-carbonyl)-3-azabicyclo[3.1.0]hexan-3-yl)-4-oxo-3,4-dihydroquinazolin-8-yl)ethyl)amino)benzoic acid] as the compound, how does the IC50 read?
A: Its IC50 is less than 500 nM.

Q: For `Cc1cc(C(C)Nc2ccccc2C(=O)O)c2nc(N3C[C@@H]4C(NC(=O)OCC(F)(F)F)[C@@H]4C3)n(C)c(=O)c2c1` (stereo partly drawn) [Example 60, 2-((1-(3,6-dimethyl-4-oxo-2-((1R,5S,6s)-6-(((2,2,2-trifluoroethoxy)carbonyl)amino)-3-azabicyclo[3.1.0]hexan-3-yl)-3,4-dihydroquinazolin-8-yl)ethyl)amino)benzoic acid], which IC50 is on record?
A: Its IC50 is 500 to 10000 nM.

Q: For `Cc1cc(C(C)Nc2ccccc2C(=O)O)c2nc(N3CCC(c4ccccc4)C3)n(C)c(=O)c2c1` (single isomer, unassigned) [Example 53, 2-[1-[3,6-dimethyl-4-oxo-2-(3-phenylpyrrolidin-1-yl)quinazolin-8-yl]ethylamino]benzoic acid], which IC50 is on record?
A: Its IC50 is 500 to 10000 nM.

Q: How did the IC50 turn out when `CNC(=O)C1[C@H]2CN(c3nc4c(C(C)Nc5ccccc5C(=O)O)cc(C)cc4c(=O)n3C)C[C@@H]12` (stereo partly drawn) [Example 89, 2-((1-(3,6-Dimethyl-2-((1R,5S,6R)-6-(methylcarbamoyl)-3-azabicyclo[3.1.0]hexan-3-yl)-4-oxo-3,4-dihydroquinazolin-8-yl)ethyl)amino)benzoic acid] was run?
A: Its IC50 is 500 to 10000 nM.

Q: For `Cc1cc(C(C)Nc2ccccc2C(=O)O)c2nc(N3C[C@@H]4C(C(=O)N5CCC[C@@H]5C)[C@@H]4C3)n(C)c(=O)c2c1` (stereo partly drawn) [Example 85, 2-((1-(3,6-Dimethyl-2-((1R,5S,6R)-6-((S)-2-methylpyrrolidine-1-carbonyl)-3-azabicyclo[3.1.0]hexan-3-yl)-4-oxo-3,4-dihydroquinazolin-8-yl)ethyl)amino)benzoic acid], which IC50 is on record?
A: Its IC50 is less than 500 nM.
